# According to patent US6906095B2, “Indolylalkylidenehydrazine-carboximidamide derivatives as 5-hydroxytryptamine-6 ligands” (Wyeth, priority 2002, dated 2005):
# Molecular target: T1, human cloned 5-HT6 receptors (Homo sapiens, UniProt P50406)
# T1 construct: expressed in transfected cells; host or cells: Hela cells
# Assay: 5-HT6 binding affinity, [3H]-LSD displacement in membranes of Hela cells
# Settings: not given
# Method: The affinity of test compounds for the serotonin 5-HT6 receptor is evaluated in the following manner. Cultured Hela cells expressing human cloned 5-HT6 receptors are harvested and centrifuged at low speed (1,000×g) for 10.0 min to remove the culture media. The harvested cells are suspended in half volume of fresh physiological phosphate buffered saline solution and recentrifuged at the same speed. This operation is repeated. The collected cells are then homogenized in ten volumes of 50 mM Tris.HCl (pH 7.4) and 0.5 mM EDTA. The homogenate is centrifuged at 40,000×g for 30.0 min and the precipitate is collected. The obtained pellet is resuspended in 10 volumes of Tris.HCl buffer and recentrifuged at the same speed. The final pellet is suspended in a small volume of Tris.HCl buffer and the tissue protein content is determined in aliquots of 10-25 μl volumes. Bovine Serum Albumin is used as the standard in the protein determination according to the method described in Lowry et al., J. Biol. Chem., 193:265 (1951). The volume of the suspended cell membranes is adjusted to give a tissue protein concentration of 1.0 mg/ml of suspension. The prepared membrane suspension (10 times concentrated) is aliquoted in 1.0 ml volumes and stored at −70° C. until used in subsequent binding experiments.
# The reaction is allowed to proceed in the dark for 120 min at room temperature, at which time, the bound ligand-receptor complex is filtered off on a 96 well unifilter with a Packard Filtermate® 196 Harvester. The bound complex caught on the filter disk is allowed to air dry and the radioactivity is measured in a Packard TopCount® equipped with six photomultiplier detectors, after the addition of 40.0 μl Microscint®-20 scintillant to each shallow well. The unifilter plate is heat-sealed and counted in a PackardTopCount® with a tritium efficiency of 31.0%.
# Specific binding to the 5-HT6 receptor is defined as the total radioactivity bound less the amount bound in the presence of 10.0 μM unlabeled methiothepin. Binding in the presence of varying concentrations of test compound is expressed as a percentage of specific binding in the absence of test compound. The results are plotted as logit % bound versus log concentration of test compound. Nonlinear regression analysis of data points with a computer assisted program Prism® yields both the IC50 and the Ki values of test compounds with 95% confidence limits.
# The amount of displacement by the test compound is given in percent (%) inhibition and is derived from the following equation: [formula] where B0 is the amount of CPM bound in the presence of the testing agent. NSB represents the CPM bound in the presence of a saturating concentration of a displacer and TB represents the total amount of CPM bound at zero (0) concentration of test compound.
# Alternatively, a linear regression line of decline of data points is plotted, from which the IC50 value can be read off and the Ki value determined by solving the following equation: [formula] where L is the concentration of the radioactive ligand used and KD is the dissociation constant of the ligand for the receptor, both expressed in nM.
# T1 sequence (P50406 whole entry): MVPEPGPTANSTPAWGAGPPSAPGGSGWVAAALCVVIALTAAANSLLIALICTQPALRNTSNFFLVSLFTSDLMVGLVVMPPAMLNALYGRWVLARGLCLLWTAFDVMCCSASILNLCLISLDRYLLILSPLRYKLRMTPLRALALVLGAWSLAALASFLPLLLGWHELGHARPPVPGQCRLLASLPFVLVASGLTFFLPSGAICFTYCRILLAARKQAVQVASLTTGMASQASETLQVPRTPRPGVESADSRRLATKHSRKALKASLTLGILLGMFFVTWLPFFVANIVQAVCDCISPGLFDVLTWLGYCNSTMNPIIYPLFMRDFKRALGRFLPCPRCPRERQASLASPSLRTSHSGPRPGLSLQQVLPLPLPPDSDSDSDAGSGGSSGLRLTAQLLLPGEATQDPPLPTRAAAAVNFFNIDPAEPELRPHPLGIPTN
Ki [nM],SMILES,inhibition at 1 µM [%]
7,"CC(=NNC(=N)N)c1cn(S(=O)(=O)c2ccccc2)c2ccccc12 [Example 9, 2-{1-[1-(phenylsulfonyl)-1H-indol-3-yl]ethylidene}hydrazinecarboximidamide]",–
101,"CCC(=NNC(=N)N)c1cn(S(=O)(=O)c2ccc3ccccc3c2)c2ccc(Cl)cc12 [Example 122, 2-{1-[5-chloro-1-(2-naphthylsulfonyl)-1H-indol-3-yl]propylidene}hydrazinecarboximidamide]",–

# More lines, now with the values behind:
SMILES,Ki [nM],inhibition at 1 µM [%]
"COc1ccc(S(=O)(=O)n2cc(C(C)=NNC(=N)N)c3ccccc32)cc1OC [Example 69, 2-(1-{1-[(3,4-dimethoxyphenyl)sulfonyl]-1H-indol-3-yl}ethylidene)hydrazinecarboximidamide]",12,–
"CC(C)CC(=NNC(=N)N)c1cn(S(=O)(=O)c2ccccc2)c2ccccc12 [Example 7, 2-{3-methyl-1-[1-(phenylsulfonyl)-1H-indol-3-yl]butylidene}hydrazinecarboximidamide]",12,–
"CC(=NNC(=N)N)c1cn(S(=O)(=O)c2ccccc2Br)c2ccccc12 [Example 31, 2-(1-{1-[(2-bromophenyl)sulfonyl]-1H-indol-3-yl}ethylidene)hydrazinecarboximidamide]",13,–
"CC(=NNC(=N)N)c1cn(S(=O)(=O)c2ccc(F)cc2)c2ccccc12 [Example 44, 2-(1-{1-[(4-fluorophenyl)sulfonyl]-1H-indol-3-yl}ethylidene)hydrazinecarboximidamide]",33,–
"N=C(N)NN=C(c1cn(S(=O)(=O)c2ccccc2)c2ccccc12)C1CCCCC1 [Example 2, 2-{Cyclohexyl[1-(phenylsulfonyl)-1H-indol-3-yl]methylidene}-hydrazinecarboximidamide]",–,69.2

# Same assay, conditions: test compound dose 10 nM; [3H]-LSD 3.0 nM
row,inhibition at 0.01 µM [%],SMILES
1,41.1,"CS(=O)(=O)n1cc(C(=NNC(=N)N)C2CC2)c2ccc(F)cc21 [Example 102, 2-{cyclopropyl[6-fluoro-1-(methylsulfonyl)-1H-indol-3-yl]methylidene}hydrazinecarboximidamide]"
2,68.3,"N=C(N)NN=C(c1cn(S(=O)(=O)c2ccccc2)c2ccccc12)C1CC1 [Example 68, 2-{cyclopropyl[1-(phenylsulfonyl)-1H-indol-3-yl]methylidene}hydrazinecarboximidamide]"

# Same assay, conditions: test compound dose 100 nM; [3H]-LSD 3.0 nM
inhibition at 0.1 µM [%],SMILES,% Inhibition [%]
67.1,"CC(=NNC(=N)N)c1c(-c2ccccc2)n(S(=O)(=O)c2ccccc2)c2ccccc12 [Example 15, 2-{1-[2-phenyl-1-(phenylsulfonyl)-1H-indol-3-yl]ethylidene}hydrazinecarboximidamide]",–
49.6,"CC(=NNC(=N)N)c1cn(C(=O)c2ccccc2)c2ccccc12 [Example 130, 2-[1-(1-benzoyl-1H-indol-3-yl)ethylidene]hydrazinecarboximidamide]",–
25.8,"CC(=NNC(=N)N)c1cn(S(=O)(=O)c2cccc3c(N(C)C)cccc23)c2ccccc12 [Example 38, 2-[1-(1-{[5-(dimethylamino)-1-naphthyl]sulfonyl}-1H-indol-3-yl)ethylidene]hydrazinecarboximidamide]",–
48,"COc1ccc(Cl)cc1S(=O)(=O)n1cc(C(C)=NNC(=N)N)c2ccccc21 [Example 34, 2-(1-{1-[(5-chloro-2-methoxyphenyl)sulfonyl]-1H-indol-3-yl}ethylidene)hydrazinecarboximidamide]",–
27.6,"N=C(N)NN=C(c1cn(S(=O)(=O)c2ccc3ccccc3c2)c2cc(F)ccc12)C1CC1 [Example 111, 2-{cyclopropyl[6-fluoro-1-(2-naphthylsulfonyl)-1H-indol-3-yl]methylidene}hydrazinecarboximidamide]",–

# The next lines start with the molecule.
SMILES,inhibition at 0.1 µM [%],% Inhibition [%]
"CC(=NNC(=N)N)c1cn(S(=O)(=O)c2sc(Cl)cc2Br)c2ccccc12 [Example 29, 2-(1-{1-[(3-bromo-5-chlorothien-2-yl)sulfonyl]-1H-indol-3-yl}ethylidene)hydrazinecarboximidamide]",60.3,–
"CC(=NNC(=N)N)c1cn(S(=O)(=O)c2cc([N+](=O)[O-])ccc2C)c2ccccc12 [Example 46, 2-(1-{1-[(2-methyl-5-nitrophenyl)sulfonyl]-1H-indol-3-yl}ethylidene)hydrazinecarboximidamide]",41,–
"CCCCC(=NNC(=N)N)c1cn(S(=O)(=O)c2ccccc2)c2ccc(Cl)cc12 [Example 85, 2-{1-[5-chloro-1-(phenylsulfonyl)-1H-indol-3-yl]pentylidene}hydrazinecarboximidamide]",57.5,–
"CS(=O)(=O)n1cc(C(=NNC(=N)N)C2CC2)c2cc(Cl)ccc21 [Example 74, 2-[[5-chloro-1-(methylsulfonyl)-1H-indol-3-yl](cyclopropyl)methylidene]hydrazinecarboximidamide]",68.5,–
"CC(=NNC(=N)N)c1cn(S(=O)(=O)c2ccc(-c3cc(C(F)(F)F)n(C)n3)s2)c2ccccc12 [Example 45, 2-{1-[1-({5-[1-methyl-5-(trifluoromethyl)-1H-pyrazol-3-yl]thien-2-yl}sulfony)-1H-indol-3-yl]ethylidene}hydrazinecarboximidamide]",–,23.5
"CC(=NNC(=N)N)c1cn(C(=O)Nc2ccccc2)c2ccccc12 [Example 129, 3-(1-{2-[amino(imino)methyl]hydrazono}ethyl)-N-phenyl-1H-indole-1-carboxamide]",23.4,–
"CC(=NNC(=N)N)c1cn(S(=O)(=O)c2ccc(OC(F)(F)F)cc2)c2ccccc12 [Example 54, 2-[1-(1-{[4-(trifluoromethoxy)phenyl]sulfonyl}-1H-indol-3-yl)ethylidene]hydrazinecarboximidamide]",26.2,–
"COc1ccc(S(=O)(=O)n2cc(C(C)=NNC(=N)N)c3ccccc32)cc1OC [Example 69, 2-(1-{1-[(3,4-dimethoxyphenyl)sulfonyl]-1H-indol-3-yl}ethylidene)hydrazinecarboximidamide]",72.4,–
"COc1ccc2c(c1)c(C=NNC(=N)N)cn2S(=O)(=O)c1ccccc1 [Example 20, 2-{[5-methoxy-1-(phenylsulfonyl)-1H-indol-3-yl]methylidene}hydrazinecarboximidamide]",76.3,–
"CC(=NNC(=N)N)c1cn(S(C)(=O)=O)c2ccccc12 [Example 55, 2-{1-[1-(methylsulfonyl)-1H-indol-3-yl]ethylidene}hydrazinecarboximidamide]",68.2,–
"CCCCS(=O)(=O)n1cc(C(=NNC(=N)N)C2CC2)c2ccccc21 [Example 60, 2-[[1-(butylsulfonyl)-1H-indol-3-yl](cyclopropyl)methylidene]hydrazinecarboximidamide]",62.6,–
"CC(=NNC(=N)N)c1cn(S(=O)(=O)c2ccccc2Br)c2ccccc12 [Example 31, 2-(1-{1-[(2-bromophenyl)sulfonyl]-1H-indol-3-yl}ethylidene)hydrazinecarboximidamide]",83.3,–
"CC(=NNC(=N)N)c1cn(S(=O)(=O)c2ccc(F)cc2)c2ccccc12 [Example 44, 2-(1-{1-[(4-fluorophenyl)sulfonyl]-1H-indol-3-yl}ethylidene)hydrazinecarboximidamide]",75.5,–

# Same assay, conditions: test compound dose 1000 nM; [3H]-LSD 3.0 nM; read-out: % Inhibition
row,inhibition at 1 µM [%],SMILES
1,99.5,"CC(=NNC(=N)N)c1cn(S(=O)(=O)c2ccccc2)c2ccccc12 [Example 9, 2-{1-[1-(phenylsulfonyl)-1H-indol-3-yl]ethylidene}hydrazinecarboximidamide]"
2,67.8,"CC(=NNC(=N)N)c1cn(S(=O)(=O)c2ccc3ccccc3c2)c2cc(F)ccc12 [Example 109, 2-{1-[6-fluoro-1-(2-naphthylsulfonyl)-1H-indol-3-yl]ethylidene}hydrazinecarboximidamide]"
3,71,"CCCCC(=NNC(=N)N)c1cn(S(C)(=O)=O)c2ccc(Cl)cc12 [Example 73, 2-{1-[5-chloro-1-(methylsulfonyl)-1H-indol-3-yl]pentylidene}hydrazinecarboximidamide]"

# Further lines, the molecule ahead of its results:
row,SMILES,inhibition at 1 µM [%]
1,"CCCCC(=NNC(=N)N)c1c(-c2ccc(Cl)cc2)n(S(=O)(=O)c2ccccc2)c2ccccc12 [Example 96, 2-{1-[2-(4-chlorophenyl)-1-(phenylsulfonyl)-1H-indol-3-yl]pentylidene}hydrazinecarboximidamide]",20
2,"N=C(N)NN=Cc1cn(S(=O)(=O)c2ccccc2)c2ccc(OCc3ccccc3)cc12 [Example 21, 2-{[5-(benzyloxy)-1-(phenylsulfonyl)-1H-indol-3-yl]methylidene}hydrazinecarboximidamide]",57.4
3,"CC(C)CC(=NNC(=N)N)c1cn(S(=O)(=O)c2ccccc2)c2ccccc12 [Example 7, 2-{3-methyl-1-[1-(phenylsulfonyl)-1H-indol-3-yl]butylidene}hydrazinecarboximidamide]",98.5
4,"CCCCC(=NNC(=N)N)c1cn(S(=O)(=O)c2ccc(OC)c(OC)c2)c2ccccc12 [Example 70, 2-(1-{1-[(3,4-dimethoxyphenyl)sulfonyl]-1H-indol-3-yl}pentylidene)hydrazinecarboximidamide]",89.8
5,"N=C(N)NN=C(c1c(-c2ccc(Cl)cc2)n(S(=O)(=O)c2ccc3ccccc3c2)c2ccccc12)C1CC1 [Example 94, 2-[[2-(4-chlorophenyl)-1-(2-naphthylsulfonyl)-1H-indol-3-yl](cyclopropyl)methylidene]hydrazinecarboximidamide]",27.9
